Measurements taken from patent US9962453B2, “Immunogenic compound” (ALTIMMUNE UK LIMITED, priority 2013, dated 2018).
Counter-ions that a name gives are not always drawn. No end group written: not given here. PEG‑FIM = not defined here

Legend:
[1] = tested on: T cell immune response to FP-02.2 vaccine peptides; format: in vivo, BALB/c mice; details: conclusions of Example 2
[2] = target: T1, human TLR7 (Homo sapiens, UniProt Q9NYK1); assay: Human TLR7 HEK-Blue reporter gene assay (NF-kappaB activation, SEAP); format: cell-based; details: in comparison with R848
T1 construct: host or cells: HEK-Blue-hTLR7 (HEK293)
T1 sequence (Q9NYK1 27-1049): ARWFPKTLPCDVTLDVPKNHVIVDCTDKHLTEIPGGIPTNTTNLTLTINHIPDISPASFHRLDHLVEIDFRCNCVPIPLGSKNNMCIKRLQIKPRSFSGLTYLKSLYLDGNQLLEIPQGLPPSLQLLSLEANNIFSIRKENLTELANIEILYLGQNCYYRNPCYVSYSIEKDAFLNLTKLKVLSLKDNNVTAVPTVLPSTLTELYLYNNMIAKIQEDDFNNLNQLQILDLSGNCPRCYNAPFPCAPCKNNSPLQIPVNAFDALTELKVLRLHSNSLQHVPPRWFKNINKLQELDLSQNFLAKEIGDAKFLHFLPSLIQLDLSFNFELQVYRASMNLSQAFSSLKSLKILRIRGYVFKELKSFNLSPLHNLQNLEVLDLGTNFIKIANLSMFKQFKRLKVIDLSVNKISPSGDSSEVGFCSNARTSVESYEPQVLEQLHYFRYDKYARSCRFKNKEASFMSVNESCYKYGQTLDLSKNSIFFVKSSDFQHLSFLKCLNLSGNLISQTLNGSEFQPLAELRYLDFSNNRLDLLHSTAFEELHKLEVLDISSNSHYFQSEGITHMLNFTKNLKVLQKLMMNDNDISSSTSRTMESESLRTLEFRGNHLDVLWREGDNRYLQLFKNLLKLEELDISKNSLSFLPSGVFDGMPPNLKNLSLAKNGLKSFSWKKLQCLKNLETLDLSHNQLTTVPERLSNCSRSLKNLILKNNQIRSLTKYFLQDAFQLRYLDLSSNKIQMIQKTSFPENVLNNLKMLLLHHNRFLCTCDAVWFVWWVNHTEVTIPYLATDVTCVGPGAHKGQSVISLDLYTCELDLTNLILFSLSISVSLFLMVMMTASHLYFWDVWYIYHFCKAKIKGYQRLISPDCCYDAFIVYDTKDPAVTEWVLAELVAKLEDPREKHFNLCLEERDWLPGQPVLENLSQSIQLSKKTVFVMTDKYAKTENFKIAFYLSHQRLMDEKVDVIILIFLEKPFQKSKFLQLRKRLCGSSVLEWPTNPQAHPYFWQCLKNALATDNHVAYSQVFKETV
Description: (§1) The activity of different TLR-7 or TLR-8 agonist were tested using human TLR-specific HEK-Blue™ reporter gene assays (Invivogen, France). HEK-Blue™-hTLR7 cells and HEK-Blue™-hTLR8 cells were obtained by co-transfection of the human TLR7 gene or human TLR8 genes and an inducible SEAP (secreted embryonic alkaline phosphatase) reporter gene into HEK293 cells. The SEAP gene is placed under the control of the IFN-β minimal promoter fused to five NF-kappaB and AP-1-binding sites. Stimulation with a TLR ligand activates NF-kappaB and AP-1 which induce the production of SEAP. Cells were maintained in HEK-Blue™ selection medium containing Blasticidin, Zeocin and Normocin. HEK-Blue™ cells were incubated at a density of 10^5 cells/mL in a volume of 200 ul in 96 well plates. In the presence of the HEK-Blue™ detection media, the secretion of SEAP (proportional to the to the NF-kappaB induction) was quantified at […].

[3] = target: T2, human TLR8 (Homo sapiens, UniProt Q9NR97); assay: Human TLR8 HEK-Blue reporter gene assay (NF-kappaB activation, SEAP); format: cell-based; details: in comparison with R848
T2 construct: host or cells: HEK-Blue-hTLR8 (HEK293)
T2 sequence (Q9NR97 27-1041): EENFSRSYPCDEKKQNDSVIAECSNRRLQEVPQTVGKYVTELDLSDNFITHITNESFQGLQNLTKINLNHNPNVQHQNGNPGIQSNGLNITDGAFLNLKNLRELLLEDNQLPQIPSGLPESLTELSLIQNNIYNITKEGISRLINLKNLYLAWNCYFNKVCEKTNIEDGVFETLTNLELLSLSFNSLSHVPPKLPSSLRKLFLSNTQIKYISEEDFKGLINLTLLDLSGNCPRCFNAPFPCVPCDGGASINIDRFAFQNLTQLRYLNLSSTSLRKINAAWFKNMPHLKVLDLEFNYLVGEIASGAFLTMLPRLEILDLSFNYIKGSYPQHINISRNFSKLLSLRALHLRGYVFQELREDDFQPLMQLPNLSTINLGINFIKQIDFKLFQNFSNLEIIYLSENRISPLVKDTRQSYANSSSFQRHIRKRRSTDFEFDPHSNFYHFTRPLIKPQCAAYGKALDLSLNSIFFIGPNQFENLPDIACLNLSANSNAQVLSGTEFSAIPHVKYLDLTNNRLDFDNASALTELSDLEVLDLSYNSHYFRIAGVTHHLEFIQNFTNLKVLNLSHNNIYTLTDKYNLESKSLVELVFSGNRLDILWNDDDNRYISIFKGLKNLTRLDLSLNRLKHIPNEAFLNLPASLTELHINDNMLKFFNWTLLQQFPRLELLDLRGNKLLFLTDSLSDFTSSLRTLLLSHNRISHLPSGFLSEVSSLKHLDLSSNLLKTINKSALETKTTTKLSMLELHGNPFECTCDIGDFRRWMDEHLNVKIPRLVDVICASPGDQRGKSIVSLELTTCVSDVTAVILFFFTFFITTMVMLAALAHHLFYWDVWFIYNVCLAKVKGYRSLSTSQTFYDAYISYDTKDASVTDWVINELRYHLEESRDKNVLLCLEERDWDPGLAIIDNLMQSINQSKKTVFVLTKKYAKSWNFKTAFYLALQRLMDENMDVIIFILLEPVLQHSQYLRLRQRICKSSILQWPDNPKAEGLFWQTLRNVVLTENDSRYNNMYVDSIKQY
Description: as §1

CCOCc1nc2c(N)nc3ccccc3c2n1CC(C)(C)O [Peptide R848, [4-Amino-2-(ethoxymethyl)-1H-imidazo[4,5-c]quinolin-1-yl]-2-methyl-2-propanol, HCl, reference compound]
adjuvanticity, conjugates versus free R848 [1]: little to no-adjuvanticity | NF-kappaB activation in HEK-293 cells expressing TLR-7 [2]: highly active | NF-kappaB activation in HEK-293 cells expressing TLR-8 [3]: highly active

RLK(PEG-FIM)-NH2 (Arg-Leu-Lys(PEG‑FIM)-NH2; reading uncertain; also: printed as RLK(PEG-FIM)-NH2) [RLK-PEG-FIM-01]
NF-kappaB activation in HEK-293 cells expressing TLR-7 [2]: also active in the TLR-7 and TLR-8 cell line but to a much lesser extent compared to R848 | NF-kappaB activation in HEK-293 cells expressing TLR-8 [3]: also active in the TLR-7 and TLR-8 cell line but to a much lesser extent compared to R848
